Numbered stars: 1 amine (or outer) side, 2 acyl side, 3 side chain; on linkers, the order of the positions; unused ones are H or OH. Square brackets hold non-standard residues; d marks the D form. Peptide text beside a SMILES is read from it. Cha = N[C@@H](CC1CCCCC1)C(=O)O; Suc = O=C(CCC(=O)[*:2])[*:1]; Ava = NCCCCC(=O)O

The subject of this assay is platelet. Description: Dog antiplatelet activity. The class given is cell-based. Particulars: read-out: Dog Antiplatelet IC₅₀.
Consider `CC[C@H](C)[C@H](NC(=O)[C@@H]1CCCN1C(=O)[C@H](CCC(=O)O)NC(=O)[C@H](Cc1c[nH]c2ccccc12)NC(=O)[C@H](CC(=O)O)NC(=O)CNC(=O)CCCCNC(=N)N)C(=O)N1CCC[C@H]1C(=O)N[C@@H](CCC(=O)O)C(=O)N[C@@H](CCC(=O)O)C(=O)N[C@@H](C)C(=O)N[C@@H](CC1CCCCC1)C(=O)N[C@H](CCC(=O)O)C(=O)O` [Example 1], for which the IC50 worked out at 6 µM.

With `CC[C@H](C)[C@H](NC(=O)[C@@H]1CCCN1C(=O)[C@H](CCC(=O)O)NC(=O)[C@H](Cc1ccc(O)cc1)NC(=O)CCC(=O)O)C(=O)N1CCC[C@H]1C(=O)N[C@@H](CCCNC(=N)N)C(=O)NCC(=O)N[C@@H](CC(=O)O)C(=O)N[C@@H](Cc1ccccc1)C(=O)N[C@H](CCC(=O)O)C(=O)O` [Example 4] (Suc-YEPIPRGDF[dE]-OH), the IC50 was 42 µM.

With `CC[C@H](C)[C@H](NC(=O)[C@@H]1CCCN1C(=O)[C@H](CCC(=O)O)NC(=O)[C@H](Cc1ccc(OC)cc1)NC(=O)[C@H](CC(=O)O)NC(=O)CNC(=O)CCCCNC(=N)N)C(=O)N1CCC[C@H]1C(=O)N[C@@H](CCC(=O)O)C(=O)N[C@@H](CCC(=O)O)C(=O)N[C@@H](C)C(=O)N[C@@H](CC1CCCCC1)C(=O)N[C@H](CCC(=O)O)C(=O)O` [Example 5, 5GP-Gly-Asp-Tyr(OCH₃)-Glu-Pro-Ile-Pro-Glu-Glu-Ala-Cha-glu-OH], the IC50 stood at 10 µM.

As for `CC[C@H](C)[C@H](NC(=O)[C@@H]1CCCN1C(=O)[C@H](CCC(=O)O)NC(=O)[C@H](Cc1ccc(OC)cc1)NC(=O)[C@H](CC(=O)O)NC(=O)CNC(=O)CCCCN)C(=O)N1CCC[C@H]1C(=O)N[C@@H](CCC(=O)O)C(=O)N[C@@H](CCC(=O)O)C(=O)N[C@@H](C)C(=O)N[C@@H](CC1CCCCC1)C(=O)N[C@H](CCC(=O)O)C(=O)O` [Example 3, 5AP-Gly-Asp-Tyr(OCH₃)-Glu-Pro-Ile-Pro-Glu-Glu-Ala-Cha-glu-OH], the IC50 came to 280 µM.

Turning to `CC[C@H](C)[C@H](NC(=O)[C@H](CCC(=O)O)NC(=O)[C@H](CCC(=O)O)NC(=O)[C@H](Cc1c[nH]c2ccccc12)NC(=O)[C@H](CC(=O)O)NC(=O)CNC(=O)CCCCN)C(=O)N1CCC[C@H]1C(=O)N[C@@H](CCC(=O)O)C(=O)N[C@@H](CCC(=O)O)C(=O)N[C@@H](C)C(=O)N[C@@H](CC1CCCCC1)C(=O)N[C@H](CCC(=O)O)C(=O)O` [Example 2] (H-[Ava]GDWEEIPEEA[Cha][dE]-OH), the IC50 was 250 µM.

The values are drawn from patent EP0468448B1, “Analogs of hirudin having antiplatelet activity” (MERRELL PHARMACEUTICALS INC., priority 1990, dated 1992).
